Source: US8937088B2, “Ureas for the treatment and prevention of cancer” (Astar Biotech LLC, priority 2011, dated 2015)
Read-outs that look alike come from different tables or passages of the source.

How the values were obtained:
[1] = test system: HUH7 (human hepatoma cell line); experiment: Cell death detection, trypan blue exclusion assay, HUH7, in combination with AZD-6244; type: cell-based; settings: HUH7, 6-day treatment, compound 0.5 μM
Summary of the method: (§1)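 After drug treatment, adherent cells (trypsin/EDTA, 10 min, 37° C) and detached cells from the medium were pooled and stained with trypan blue. Five hundred cells from random fields were counted by light microscopy on a hemocytometer. Blue-stained cells scored dead, expressed as percentage of total counted.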

KDR(VEGFR2) = KDR(VEGFR2) (Homo sapiens, UniProt P35968); experiment: In vitro kinase assay (Invitrogen SelectScreen Profiling Service), KDR; type: biochemical
Sequence of KDR(VEGFR2) (P35968 20-1356): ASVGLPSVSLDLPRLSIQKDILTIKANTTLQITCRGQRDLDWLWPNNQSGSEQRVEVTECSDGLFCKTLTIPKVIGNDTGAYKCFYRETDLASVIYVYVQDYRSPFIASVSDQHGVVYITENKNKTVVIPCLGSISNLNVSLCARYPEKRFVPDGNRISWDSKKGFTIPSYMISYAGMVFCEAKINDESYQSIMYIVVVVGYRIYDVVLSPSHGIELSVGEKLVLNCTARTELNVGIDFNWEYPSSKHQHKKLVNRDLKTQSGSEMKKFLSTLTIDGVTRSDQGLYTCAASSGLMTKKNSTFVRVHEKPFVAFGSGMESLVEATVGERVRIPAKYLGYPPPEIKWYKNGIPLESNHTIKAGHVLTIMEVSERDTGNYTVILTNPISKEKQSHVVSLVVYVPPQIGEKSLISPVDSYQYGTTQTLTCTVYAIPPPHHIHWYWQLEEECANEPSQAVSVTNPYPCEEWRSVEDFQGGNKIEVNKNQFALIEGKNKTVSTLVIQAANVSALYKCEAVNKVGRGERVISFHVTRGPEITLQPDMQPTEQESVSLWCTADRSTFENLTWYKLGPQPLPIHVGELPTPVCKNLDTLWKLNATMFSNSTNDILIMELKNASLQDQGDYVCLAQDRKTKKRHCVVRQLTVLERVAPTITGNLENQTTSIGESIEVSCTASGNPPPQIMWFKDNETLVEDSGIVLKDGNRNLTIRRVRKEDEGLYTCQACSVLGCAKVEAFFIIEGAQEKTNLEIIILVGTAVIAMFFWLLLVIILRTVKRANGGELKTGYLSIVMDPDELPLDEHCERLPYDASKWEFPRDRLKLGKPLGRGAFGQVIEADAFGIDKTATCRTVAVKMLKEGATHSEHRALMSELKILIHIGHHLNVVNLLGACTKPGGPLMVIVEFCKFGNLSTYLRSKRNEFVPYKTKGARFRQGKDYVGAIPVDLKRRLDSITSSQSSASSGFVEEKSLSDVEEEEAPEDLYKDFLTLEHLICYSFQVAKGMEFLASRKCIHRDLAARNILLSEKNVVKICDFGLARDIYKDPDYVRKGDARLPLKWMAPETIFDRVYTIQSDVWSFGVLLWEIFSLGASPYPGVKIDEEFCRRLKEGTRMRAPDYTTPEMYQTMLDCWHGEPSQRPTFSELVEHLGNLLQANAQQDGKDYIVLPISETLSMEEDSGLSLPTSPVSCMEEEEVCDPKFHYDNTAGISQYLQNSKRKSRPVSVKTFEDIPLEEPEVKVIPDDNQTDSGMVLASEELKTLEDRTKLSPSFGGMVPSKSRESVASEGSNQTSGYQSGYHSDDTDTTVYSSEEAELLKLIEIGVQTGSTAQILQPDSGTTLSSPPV
Description: (§2) Biological Test 1. In Vitro Kinase Assay for BRAF, FLT3 and KDR(VEGFR2) The inhibitory activities of the compounds of the invention were measured by Invitrogen's SelectScreen® Profiling Service.

[2] = test system: HUH7 (human hepatoma cell line); experiment: Cell death detection, trypan blue exclusion assay, HUH7; type: cell-based; settings: Huh-7, 168 h, HUH7, 7-day treatment, read-out: Cell Death (%) at Tested Concentration
Summary of the method: as §1

[3] = test system: HepG2 (human Hepatocellular carcinoma cell line); experiment: Cell death detection, trypan blue exclusion assay, HepG2; type: cell-based; settings: HepG2, 5-day treatment
Summary of the method: as §1

[4] = test system: LNCaP (human prostate adenocarcinoma cell line); experiment: Cell death detection, trypan blue exclusion assay, LNCaP; type: cell-based; settings: read-out: Cell Death (%) at Tested Concentration
Summary of the method: as §1

BRAF = BRAF (Homo sapiens, UniProt P15056); experiment: In vitro kinase assay (Invitrogen SelectScreen Profiling Service), BRAF; type: biochemical
Sequence of BRAF (P15056 whole entry): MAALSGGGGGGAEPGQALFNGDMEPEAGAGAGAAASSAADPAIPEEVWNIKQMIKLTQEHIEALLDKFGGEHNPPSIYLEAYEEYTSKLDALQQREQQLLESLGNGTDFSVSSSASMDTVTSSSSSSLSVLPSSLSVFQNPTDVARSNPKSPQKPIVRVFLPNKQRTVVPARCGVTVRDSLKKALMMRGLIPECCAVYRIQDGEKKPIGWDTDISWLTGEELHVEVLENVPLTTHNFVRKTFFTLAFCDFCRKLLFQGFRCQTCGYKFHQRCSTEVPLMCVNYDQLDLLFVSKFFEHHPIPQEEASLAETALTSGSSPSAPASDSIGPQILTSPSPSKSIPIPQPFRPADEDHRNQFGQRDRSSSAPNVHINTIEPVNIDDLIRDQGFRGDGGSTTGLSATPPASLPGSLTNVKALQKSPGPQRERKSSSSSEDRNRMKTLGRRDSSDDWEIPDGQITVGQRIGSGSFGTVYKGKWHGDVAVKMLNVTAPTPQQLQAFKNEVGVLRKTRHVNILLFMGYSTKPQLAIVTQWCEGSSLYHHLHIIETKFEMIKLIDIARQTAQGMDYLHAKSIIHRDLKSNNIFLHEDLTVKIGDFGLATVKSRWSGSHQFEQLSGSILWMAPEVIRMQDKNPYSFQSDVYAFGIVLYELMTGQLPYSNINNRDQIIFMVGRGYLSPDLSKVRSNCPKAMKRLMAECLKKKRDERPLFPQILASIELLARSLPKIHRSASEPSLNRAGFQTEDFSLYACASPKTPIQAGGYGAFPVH
Description: as §2

[5] = test system: Hep3B (human hepatoma cell line); experiment: Cell death detection, trypan blue exclusion assay, Hep3B; type: cell-based; settings: 5-day treatment
Summary of the method: as §1

[6] = test system: patient-derived primary squamous lung 14531 tumor; experiment: In vivo activity in SCID mouse model with lung cancer, 30-day treatment; settings: patient-derived primary squamous lung 14531 tumor in mouse, compared to the control
Source text: Biological Test 4. In Vivo Activity in […] SCID Mouse Model with Lung Cancer
Biological Test 5. In Vivo Activity in Senograph SCID Mouse Model with Lung Cancer

FLT3 = target: T1, FLT3 (Homo sapiens, UniProt P36888); experiment: In vitro kinase assay (Invitrogen SelectScreen Profiling Service), FLT3; type: biochemical; settings: FLT3, 0.1 μM
T1 sequence (P36888 27-993): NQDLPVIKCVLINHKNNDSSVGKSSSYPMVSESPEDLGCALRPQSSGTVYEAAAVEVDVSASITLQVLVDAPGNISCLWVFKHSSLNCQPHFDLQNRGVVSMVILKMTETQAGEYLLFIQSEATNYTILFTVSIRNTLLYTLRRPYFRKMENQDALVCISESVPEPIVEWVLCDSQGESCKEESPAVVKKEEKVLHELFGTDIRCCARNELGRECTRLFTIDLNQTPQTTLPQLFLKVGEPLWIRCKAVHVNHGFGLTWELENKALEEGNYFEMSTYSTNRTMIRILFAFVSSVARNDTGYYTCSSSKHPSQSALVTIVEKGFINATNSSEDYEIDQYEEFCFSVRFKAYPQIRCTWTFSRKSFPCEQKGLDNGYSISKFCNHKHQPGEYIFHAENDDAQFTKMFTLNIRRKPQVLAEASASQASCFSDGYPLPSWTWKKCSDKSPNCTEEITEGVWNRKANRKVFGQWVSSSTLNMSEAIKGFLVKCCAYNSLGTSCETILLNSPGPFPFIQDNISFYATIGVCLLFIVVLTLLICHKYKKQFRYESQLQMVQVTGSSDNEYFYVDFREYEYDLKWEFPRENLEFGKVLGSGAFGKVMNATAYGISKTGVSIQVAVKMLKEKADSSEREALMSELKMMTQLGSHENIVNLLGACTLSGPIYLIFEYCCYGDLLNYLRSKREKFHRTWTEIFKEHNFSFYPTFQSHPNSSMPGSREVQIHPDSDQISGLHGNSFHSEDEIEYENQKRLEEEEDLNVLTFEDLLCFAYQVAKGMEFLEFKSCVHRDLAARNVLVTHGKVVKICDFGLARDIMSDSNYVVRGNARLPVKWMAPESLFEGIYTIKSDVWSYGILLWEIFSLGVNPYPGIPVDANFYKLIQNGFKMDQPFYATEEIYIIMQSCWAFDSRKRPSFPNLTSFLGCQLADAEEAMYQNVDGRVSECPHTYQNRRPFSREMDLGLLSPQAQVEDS
Description: as §2

[7] = test system: HT29 (human colon adenocarcinoma cell line); experiment: Cell death detection, trypan blue exclusion assay, HT29; type: cell-based; settings: HT29, 5-day treatment
Summary of the method: as §1

In the case of `CNC(=O)c1cc(Oc2ccc(NC(=O)Nc3ccc(Cl)c(S(F)(F)(F)(F)F)c3)c(F)c2)ccn1` [Example 4, 4-[4-({[4-chloro-3-(pentafluoro-λ^6-sulfanyl)phenyl]carbamoyl}amino)-3-fluorophenoxy]-N-methylpyridine-2-carboxamide], the “Cell Death (%) in combination with AZD-6244” value ([1]; AZD-6244 0 μM) is reported as 2.6%, the “Cell Death (%) in combination with AZD-6244” value ([1]; AZD-6244 0.5 μM) is reported as 99% and the inhibition at 0.1 µM (KDR(VEGFR2)) is reported as 36%. It also gave a cytotoxicity at 1 µM ([2]; 1.0 uM) of 2.8%, a cytotoxicity at 2.5 µM ([2]; 2.5 uM) of 3.1% and a cytotoxicity at 5 µM ([2]; 5.0 uM) of 59.8%. The cytotoxicity at 7.5 µM ([2]; 7.5 uM) was 91.4%, the cytotoxicity at 10 µM ([2]; 10 uM) was 93.4% and the “Cell Death (%) at Tested Concentration” value ([3]; 0.25 uM) was 1.9%. For the same compound, the “Cell Death (%) at Tested Concentration” value ([3]; 3.0 uM) was 4.5%, the “Cell Death (%) at Tested Concentration” value ([3]; 5.0 uM) was 27.6% and the cytotoxicity at 1 µM ([4]; 72 h, 3-day treatment) was 1.8%. It also gave a cytotoxicity at 2.5 µM ([4]; 72 h, 3-day treatment) of 1.4%, a cytotoxicity at 5 µM ([4]; 72 h, 3-day treatment) of 2.8% and a cytotoxicity at 7.5 µM ([4]; 72 h, 3-day treatment) of 46.8%. The cytotoxicity at 10 µM ([4]; 72 h, 3-day treatment) was 94.8%, the cytotoxicity at 1 µM ([4]; 168 h, 7-day treatment) was 1.4% and the cytotoxicity at 2.5 µM ([4]; 168 h, 7-day treatment) was 2.7%. The cytotoxicity at 5 µM ([4]; 168 h, 7-day treatment) was 69.4%, the cytotoxicity at 7.5 µM ([4]; 168 h, 7-day treatment) was 99% and the cytotoxicity at 10 µM ([4]; 168 h, 7-day treatment) was 99%. The inhibition at 0.1 µM (BRAF) was 8%, the “Cell Death (%) at Tested Concentration” value ([5]; 0.25 uM) was 4.6% and the “Cell Death (%) at Tested Concentration” value ([5]; 3.0 uM) was 67.2%. For the same compound, the “Cell Death (%) at Tested Concentration” value ([5]; 5.0 uM) was 96.7%, the “effect in reducing the tumor volume” value [6] was “significant effect in reducing the tumor volume” and the inhibition at 0.1 µM (FLT3) was 51%. For the same compound, the “Cell Death (%) at Tested Concentration” value ([7]; 2.5 uM) was 11.6%, the “Cell Death (%) at Tested Concentration” value ([7]; 5.0 uM) was 13.8% and the “Cell Death (%) at Tested Concentration” value ([7]; 10 uM) was 44.6%.
